This is an account of results in ChEMBL document CHEMBL4251603, “Structure-activity studies on N-Substituted tranylcypromine derivatives lead to selective inhibitors of lysine specific demethylase 1 (LSD1) and potent inducers of leukemic cell differentiation” (Eur J Med Chem, 2018).

Data set [1] deals with Lysine-specific histone demethylase 1A (Homo sapiens, UniProt O60341).
The target in data set [2] is T1, Amine oxidase [flavin-containing] B (Homo sapiens, UniProt P27338).
T1 sequence (P27338 whole entry): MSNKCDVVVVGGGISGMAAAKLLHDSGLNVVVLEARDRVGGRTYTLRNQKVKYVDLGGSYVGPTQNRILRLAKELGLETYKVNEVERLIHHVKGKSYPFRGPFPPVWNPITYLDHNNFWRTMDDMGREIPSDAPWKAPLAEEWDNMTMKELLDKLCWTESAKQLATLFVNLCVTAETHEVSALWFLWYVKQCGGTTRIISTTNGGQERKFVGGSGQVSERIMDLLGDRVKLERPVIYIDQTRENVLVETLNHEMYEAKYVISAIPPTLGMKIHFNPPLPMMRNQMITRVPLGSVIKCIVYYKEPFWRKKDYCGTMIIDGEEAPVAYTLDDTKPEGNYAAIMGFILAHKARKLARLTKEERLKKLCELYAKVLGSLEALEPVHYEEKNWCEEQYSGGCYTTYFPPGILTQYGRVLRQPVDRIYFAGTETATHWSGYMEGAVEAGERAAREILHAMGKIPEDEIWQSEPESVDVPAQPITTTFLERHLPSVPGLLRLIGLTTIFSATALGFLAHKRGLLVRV
Put plainly: (§1) Inhibition of MAO-B (unknown origin) at 250 uM using beetle luciferin derived luminogenic substrate preincubated for 15 mins followed by substrate addition measured after 60 mins by MAO-Glo assay relative to control. Conditions: 1 h, 250 µM.

The test system of data set [3] is SJRH30. The experiment in a line: Induction of cell death in human Rh30 cells at 50 to 100 nM after 72 hrs by propidium iodide/Hoechst 33342 staining based fluorescence microscopic analysis. It counts as functional.
Data set [4] has as its system SJRH30. The experiment in a line: Potentiation of JNJ-26481585-induced cell death in human Rh30 cells after 72 hrs by propidium iodide/Hoechst 33342 staining based fluorescence microscopic analysis. It counts as functional.
In data set [5] the target is T2, Amine oxidase [flavin-containing] A (Homo sapiens, UniProt P21397).
T2 sequence (P21397 whole entry): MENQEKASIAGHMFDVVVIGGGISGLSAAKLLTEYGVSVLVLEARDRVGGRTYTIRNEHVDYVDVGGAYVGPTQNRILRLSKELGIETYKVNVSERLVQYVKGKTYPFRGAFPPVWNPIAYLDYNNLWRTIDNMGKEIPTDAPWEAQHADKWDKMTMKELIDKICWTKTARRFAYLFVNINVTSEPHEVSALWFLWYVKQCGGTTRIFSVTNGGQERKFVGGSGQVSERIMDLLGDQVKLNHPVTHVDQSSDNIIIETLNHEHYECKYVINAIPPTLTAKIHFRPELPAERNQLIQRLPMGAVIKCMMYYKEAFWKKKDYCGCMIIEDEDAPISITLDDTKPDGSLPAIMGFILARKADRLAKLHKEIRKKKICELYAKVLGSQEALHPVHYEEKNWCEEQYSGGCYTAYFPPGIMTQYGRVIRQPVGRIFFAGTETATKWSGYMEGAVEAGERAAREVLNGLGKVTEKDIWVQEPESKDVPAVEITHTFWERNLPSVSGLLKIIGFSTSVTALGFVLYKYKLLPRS

Data set [6] deals with THP-1. The experiment in a line: cells. Conditions: Homo sapiens, THP-1, 5 min, read-out: INH.
Data set [7] deals with T1, Amine oxidase [flavin-containing] B. The experiment in a line: Inhibition of MAO-B (unknown origin) using beetle luciferin derived luminogenic substrate preincubated for 15 mins followed by substrate addition measured after 60 mins by MAO-Glo assay.
Data set [8] has as its system THP-1. The experiment in a line: Inhibition of colony formation in human THP1 cells at 0.5 uM after […] by light microscopic method relative to control. Type of data set: functional.
Data set [9] concerns the target Lysine-specific histone demethylase 1A (Mus musculus) (UniProt Q6ZQ88). The experiment in a line: Inhibition of LSD1 in mouse Hoxa9/Meis1 transformed progenitor cells assessed as induction of granulocytic differentiation at 50 to 100 nM up to 96 hrs by pappenheim staining based assay.
The target is the same in data set [10]. Put plainly: Inhibition of LSD1 in mouse Hoxa9/Meis1 transformed progenitor cells assessed as reduction in c-Kit positive cells at 100 nM after 96 hrs by flow cytometry. It counts as cell-based.
The next data set addresses T3, MAO-B (Homo sapiens, UniProt P27338).
T3 sequence (P27338 whole entry): T1 sequence (P27338 whole entry)
The data set is described as §1. The settings on record: MAO-B enzyme (unknown origin), probe beetle luciferin derived luminogenic substrate.

Broadly, the IC50 is the concentration at which inhibition is half-maximal. High values mean weaker potency in that assay, low ones greater potency in that assay.

Structures are written as SMILES. Activity calls are given as the source filed them. The calls are words filed in the database; no cut-off is given here.

On to `Cc1ccc(-c2ncc(OCC3CCNC3)cc2-c2ccc(C#N)cc2)cc1` (stereo unspecified), for which the half-maximal inhibitory concentration (IC50) in data set [1] is 0.09 µM.

Take `CNS(=O)(=O)c1ccc(CN[C@H]2C[C@@H]2c2ccccc2)cc1` (relative stereo): the “inhibition (INH)” value in data set [2] is “Not Active”. In addition, the result in the data set on SJRH30 [3] and in the data set on SJRH30 [4] was Active. The same compound gave a 50% inhibitory concentration (IC50) in data set [5] of 17.1 µM. Further, the inhibition at 0.05 µM with THP-1 [6] came to 80%.

As to `O=C(O)c1ccc(CN2CCC(CN[C@H]3C[C@@H]3c3ccccc3)CC2)cc1`, the outcome in the data set on SJRH30 [3] and in the data set on SJRH30 [4] was Active. In addition, the IC50 in data set [1] was determined as 1.7 µM.

With `Clc1ccc(CN[C@H]2C[C@@H]2c2ccccc2)cc1` (relative stereo), the IC50 in data set [7] is 14.1 µM; in data set [5], 0.206 µM. The compound also returned an inhibition at 0.5 µM with THP-1 [8] of 80%. The inhibition entry in [9] and in data set [10] was “Active” each time.

With `NS(=O)(=O)c1ccc(CN[C@H]2C[C@@H]2c2ccccc2)cc1` (relative stereo), the inhibition at 1 h, 250 µM against MAO-B turned out to be 42%. The outcome in the data set on SJRH30 [3] and in the data set with SJRH30 [4] was Active. In addition, the IC50 in data set [5] was 21.6 µM. Also, in the data set with THP-1 [6], the inhibition at 0.05 µM came to 80%.

On to `O=[N+]([O-])c1cccc(CN[C@H]2C[C@@H]2c2ccccc2)c1` (relative stereo), for which the concentration for half-maximal inhibition (IC50) in data set [7] was determined as 1.4 µM; in data set [5] it was 0.488 µM. In addition, the inhibition at 0.5 µM in the data set with THP-1 [8] came out at 80%. Besides, the inhibition result in data set [9] and in [10] was “Active” in each case.

As for `NC(=O)c1ccc(CN[C@H]2C[C@@H]2c2ccccc2)cc1` (relative stereo), on MAO-B, the inhibition at 1 h, 250 µM amounted to 50%. The 50% inhibitory concentration (IC50) in data set [5] is 24.7 µM.
